The record followed here is BigSolDB 2.1.

Each structure is given as a SMILES string.

As to `O=C1N2CN3C(=O)N4CN5C(=O)N6CN7C(=O)N8CN9C(=O)N%10CN%11C(=O)N%12CN1C1C2N2CN%13C(=O)N(CN%14C(=O)N(CN%15C(=O)N(CN%16C(=O)N(CN%17C(=O)N(CN1C2=O)C%12C%11%17)C%10C9%16)C8C7%15)C6C5%14)C4C3%13` (stereo not drawn), the solubility (mole fraction) – broadly, solubility expressed as the solute's share of all molecules – reads like this: (in water, 293.15 K) 0.00231; (in water, 303.15 K) 0.0027; (in water, 313.15 K) 0.00336; (in water, 323.15 K) 0.00403; (in water, 333.15 K) 0.00481; (in water, 343.15 K) 0.00573. For the same molecule, the solubility (mole fraction) (in water, 353.15 K) was found to be 0.00662.
As to `CCC(C)C`, the solubility (mole fraction) (in water, 293.2 K) worked out at 1.24e-05.
Turning to `O=[N+]([O-])c1ccc(N/N=C/c2ccco2)c([N+](=O)[O-])c1`, under “in water, 298.15 K”, the solubility (mole fraction) is 1.4e-08.
Regarding `CS(=O)(=O)c1ccc([C@@H](O)[C@@H](CF)NC(=O)C(Cl)Cl)cc1`, the solubility (mole fraction) runs as follows: (in water, 293.15 K) 5.05e-05; (in water, 296.85 K) 6.15e-05; (in water, 300.75 K) 8.19e-05; (in water, 304.55 K) 8.52e-05; (in water, 308.25 K) 9.71e-05; (in water, 312.15 K) 0.000122. For the setting “in water, 316.25 K”, this molecule had a solubility (mole fraction) of 0.000147.
In turn, `O=[N+]([O-])c1ccc(N/N=C/c2ccco2)cc1` displayed a solubility (mole fraction) (in water, 298.15 K) of 1.72e-07.
Take `CCCN1CCCC[C@H]1C(=O)Nc1c(C)cccc1C`: the solubility (mole fraction) is 0.00654 (in acetone, 278.15 K); 0.00793 (in acetone, 283.15 K); 0.0098 (in acetone, 288.15 K); 0.012 (in acetone, 293.15 K); 0.0148 (in acetone, 298.15 K); 0.0184 (in acetone, 303.15 K). Further, the solubility (mole fraction) stood at 0.023 (in acetone, 308.15 K); 0.0266 (in acetone, 313.15 K); 0.0344 (in acetone, 318.15 K).
Turning to `CSCC[C@H](N)C(=O)O`, the solubility (mole fraction) reads like this: (in water, 283.15 K) 0.00531; (in water, 288.15 K) 0.00555; (in water, 293.15 K) 0.00625; (in water, 298.15 K) 0.00681; (in water, 303.15 K) 0.00724; (in water, 308.15 K) 0.00787. Also, the solubility (mole fraction) (in water, 313.15 K) was 0.00837.
